# US5438052A, “Cephalosporin derivatives” (Hoffmann-La Roche Inc., priority 1991, dated 1995)
# Structures can show the parent of a compound that is named as a salt. Where two headings read alike, the source gives them in different places.
# Key:
# P. aeruginosa 799/61 = assay: Minimum inhibitory concentration in vitro, agar dilution method; assay type: cell-based; settings: Pseudomonas aeruginosa
# Excerpt: (§1) 1. Minimum Inhibitory Concentration in vitro
# (§2) The activities ascertained, minimum inhibitory concentration (MIC) in μg/ml, are compiled in Table 1 hereinafter: […]
# P. aeruginosa BA = assay: as above; assay type: cell-based; settings: Pseudomonas aeruginosa
# Excerpt: as §1, §2
# P. aeruginosa 799/WT = assay: as above; assay type: cell-based; settings: Pseudomonas aeruginosa
# Excerpt: as §1, §2
# P. mirabilis 2117 = assay: as above; assay type: cell-based; settings: Proteus mirabilis
# Excerpt: as §1, §2
# P. aeruginosa MK1184 = assay: as above; assay type: cell-based; settings: Pseudomonas aeruginosa
# Excerpt: as §1, §2
# E. cloacae P99 = assay: as above; assay type: cell-based; settings: Enterobacter cloacae
# Excerpt: as §1, §2
# S. pyogenes 15 = assay: as above; assay type: cell-based; settings: Streptococcus pyogenes
# Excerpt: as §1, §2
# E. coli 25922 [1] = assay: as above; assay type: cell-based; settings: Escherichia coli
# Excerpt: as §1, §2
# S. marcescens 69438 = assay: as above; assay type: cell-based; settings: Serratia marcescens
# Excerpt: as §1, §2
# C. freundii 902 = assay: as above; assay type: cell-based; settings: Citrobacter freundii
# Excerpt: as §1, §2
# K. oxytoca 1082 = assay: as above; assay type: cell-based; settings: Klebsiella oxytoca
# Excerpt: as §1, §2
# S. aureus 6538 = assay: as above; assay type: cell-based; settings: Staphylococcus aureus
# Excerpt: as §1, §2
# E. cloacae 908SSi = assay: as above; assay type: cell-based; settings: Enterobacter cloacae
# Excerpt: as §1, §2
# P. aeruginosa 27853 = assay: as above; assay type: cell-based; settings: Pseudomonas aeruginosa
# Excerpt: as §1, §2
# K. pneumoniae 418 = assay: as above; assay type: cell-based; settings: Klebsiella pneumoniae
# Excerpt: as §1, §2
# E. cloacae 908R = assay: as above; assay type: cell-based; settings: Enterobacter cloacae
# Excerpt: as §1, §2
# P. vulgaris 1028 = assay: as above; assay type: cell-based; settings: Proteus vulgaris
# Excerpt: as §1, §2
# E. coli 25922 [2] = assay: Experimental systemic septicaemia in the mouse; assay type: in vivo; settings: 96 h
# In short: (§3)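 Albino mice (16-20 g) infected i.p. with overnight culture at about 5-100× the 48 h LD50; groups of 5. Compounds given s.c. in 2% Tween 80 at 1 and 3 h post-infection (P. aeruginosa also at 5 h). ED50 (mg/kg s.c.) by Probit from 4-day survival.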
# [3] = system: Pseudomonas aeruginosa BA; assay: Experimental systemic septicaemia in the mouse; assay type: in vivo; settings: sc, 96 h
# In short: as §3
# S. aureus Schoch = assay: Experimental systemic septicaemia in the mouse; assay type: in vivo; settings: Staphylococcus aureus, sc, 96 h
# In short: as §3
# S. pneumoniae BA = assay: Minimum inhibitory concentration in vitro, agar dilution method; assay type: cell-based; settings: Streptococcus pneumoniae
# Excerpt: as §1, §2
Compound,MIC (E. cloacae P99) [µg/mL],MIC (P. aeruginosa 799/61; 799/61) [µg/mL],MIC (P. aeruginosa BA) [µg/mL],MIC (P. aeruginosa 799/WT; 799/WT) [µg/mL],MIC (S. pneumoniae BA) [µg/mL],MIC (P. mirabilis 2117; 2117) [µg/mL],MIC (P. aeruginosa MK1184; MK1184) [µg/mL],MIC (S. pyogenes 15; 15) [µg/mL],MIC (E. coli 25922 [1]; 25922) [µg/mL],MIC (S. marcescens 69438; 69438) [µg/mL],MIC (C. freundii 902; 902) [µg/mL],MIC (K. oxytoca 1082; 1082) [µg/mL],MIC (S. aureus 6538; 6538) [µg/mL],MIC (E. cloacae 908SSi; 908SSI) [µg/mL],MIC (P. aeruginosa 27853; 27853) [µg/mL],MIC (K. pneumoniae 418; 418) [µg/mL],MIC (E. cloacae 908R; 908R) [µg/mL],MIC (P. vulgaris 1028; 1028) [µg/mL],"ED50 (E. coli 25922 [2]; Escherichia coli, 25922, sc) [mg/kg]",ED50 [3] [mg/kg],also measured
"Cc1cc(SCC2=C(C(=O)O)N3C(=O)[C@@H](NC(=O)/C(=N\OCc4ccc(O)c(O)c4F)c4csc(N)n4)[C@H]3SC2)n2nc(CNS(=O)(=O)c3ccc(O)c(O)c3)nc2n1 [Example 5, 7-[(Z)-2-(2-amino-4-thiazolyl)-2-[[(2-fluoro-3,4-dihydroxybenzyl)oxy]imino]acetamido]-3-[[[2-[(3,4-dihydroxybenzenesulphonamido)methyl]-5-methyl-s-triazolo[1,5-a]pyrimidin-7-yl]thio]methyl]-8-oxo-5-thia-1-azabicyclo[4.2.0]oct-2-ene-2-carboxylic acid sodium salt (1:1)]",4,,,,,,,,,,,,,,,,,,,,"MIC (P. aeruginosa 799/61; P. aeruginosa 799/61, agar dilution, read-out: MIC): < 0.1 µg/mL; MIC (P. aeruginosa BA; P. aeruginosa BA, agar dilution, read-out: MIC): 0.12 µg/mL; MIC (P. aeruginosa 799/WT; P. aeruginosa 799/WT, agar dilution, read-out: MIC): < 0.1 µg/mL; MIC (P. mirabilis 2117; P. mirabilis 2117, agar dilution, read-out: MIC): 0.25 µg/mL; MIC (P. aeruginosa MK1184; P. aeruginosa MK1184, agar dilution, read-out: MIC): < 0.1 µg/mL; MIC (S. pyogenes 15; S. pyogenes 15, agar dilution, read-out: MIC): 0.5 µg/mL; MIC (E. coli 25922 [1]; E. coli 25922, agar dilution, read-out: MIC): < 0.1 µg/mL; MIC (S. marcescens 69438; S. marcescens 69438, agar dilution, read-out: MIC): < 0.1 µg/mL; MIC (C. freundii 902; C. freundii 902, agar dilution, read-out: MIC): < 0.1 µg/mL; MIC (K. oxytoca 1082; K. oxytoca 1082, agar dilution, read-out: MIC): 0.25 µg/mL; MIC (S. aureus 6538; S. aureus 6538, agar dilution, read-out: MIC): 4 µg/mL; MIC (E. cloacae 908SSi; E. cloacae 908SSi, agar dilution, read-out: MIC): 1 µg/mL; MIC (P. aeruginosa 27853; P. aeruginosa 27853, agar dilution, read-out: MIC): 0.12 µg/mL; MIC (K. pneumoniae 418; K. pneumoniae 418, agar dilution, read-out: MIC): < 0.1 µg/mL; MIC (E. cloacae 908R; E. cloacae 908R, agar dilution, read-out: MIC): 0.25 µg/mL; MIC (P. vulgaris 1028; P. vulgaris 1028, agar dilution, read-out: MIC): 0.5 µg/mL; ED50 (E. coli 25922 [2]; Escherichia coli, sc, E. coli 25922, albino mice, s.c. 1 and 3 hours after infection, survival after 4 days, read-out: ED50): < 0.1 mg/kg; ED50 ([3]; P. aeruginosa BA, albino mice, s.c. 1, 3 and 5 hours after infection, survival after 4 days, read-out: ED50): 0.034 mg/kg; ED50 (S. aureus Schoch; S. aureus Schoch, albino mice, s.c. 1 and 3 hours after infection, survival after 4 days, read-out: ED50): 3.1 mg/kg"
"Cc1cc(SCC2=C(C(=O)[O-])N3C(=O)[C@@H](NC(=O)/C(=N\OC(C)(C)C(=O)NNC(=O)c4ccc(O)c(O)c4)c4csc(N)n4)[C@H]3SC2)n2nc(CNC(=O)c3ccc(O)c(O)c3)nc2n1.[Na+] [Example 61, (6R,7R)-7-[(Z)-2-(2-amino-4-thiazolyl)-2-[[1-[3-(3,4-dihydroxybenzoyl)carbazoyl]-1-methylethoxy]imino]acetamido]-3-[[[2-[[(3,4-dihydroxybenzoyl)amino]methyl]-5-methyl-s-triazolo[1,5-a]pyrimidin-7-yl]thio]methyl]-8-oxo-5-thiaazabicyclo[4.2.0]oct-2-ene-2-carboxylic acid sodium salt (1:1)]",1,< 0.1,< 0.1,< 0.1,4,< 0.1,< 0.1,1,< 0.1,< 0.1,< 0.1,< 0.1,16,1,< 0.1,< 0.1,0.5,< 0.1,< 0.1,0.06,ED50 (S. aureus Schoch): 8.4 mg/kg
"Cc1cc(SCC2=C(C(=O)[O-])N3C(=O)[C@@H](NC(=O)/C(=N\OC(C)(C)C(=O)NNC(=O)c4ccc(O)c(O)c4)c4csc(N)n4)[C@H]3SC2)n2nc(CNS(=O)(=O)c3ccc(O)c(O)c3)nc2n1.[Na+] [Example 42, (6R,7R)-7-[(Z)-2-(2-amino-4-thiazolyl)-2-[[1-[3-(3,4-dihydroxybenzoyl)carbazoyl]-1-methylethoxy]imino]acetamido]-3-[[[2-[(3,4-dihydroxybenzenesulphonamido)methyl]-5-methyl-s-triazolo[1,5-a]pyrimidin-7-yl]thio]methyl]-8-oxo-5-thia-1-azabicyclo[4.2.0]oct-2-ene-2-carboxylic acid sodium salt (1:1)]",,< 0.1,< 0.1,< 0.1,4,0.12,< 0.1,8,< 0.1,0.12,< 0.1,< 0.1,32,4,0.25,< 0.1,0.5,0.25,0.005,0.017,ED50 (S. aureus Schoch): 10 mg/kg
